According to ChEMBL document CHEMBL1177796, “Efficient synthesis of galactosylceramide analogues for iNKT cell stimulation” (Bioorg Med Chem Lett, 2010):
The source made the active and inactive calls. No cut-off for these calls is given here.

Tested on: iNKT
Assay: Stimulation of human iNKT cell proliferation
Assay type: functional, cell-based

CCCCCCCCCCCCCCCCCCCCCCCCCC(=O)N[C@@H](/C=N/O[C@H]1O[C@H](CO)[C@H](O)[C@H](O)[C@H]1O)[C@H](O)[C@H](O)CCCCCCCCCCCCCC
Activity: Active

CCCCCCCCCCCCCCCCCCCCCCCCCC(=O)N[C@@H](/C=N/O[C@@H]1O[C@H](CO)[C@H](O)[C@H](O)[C@H]1O)[C@H](O)[C@H](O)CCCCCCCCCCCCCC
Activity: Active
